Test results reported in ChEMBL document CHEMBL1275511, “Molecular and biochemical characterization of SHV-56, a novel inhibitor-resistant beta-lactamase from Klebsiella pneumoniae” (Antimicrob Agents Chemother, 2008).
≈ marks a conversion by molar mass, not a printed value.

Assays:
Escherichia coli [1] = assay: Antimicrobial activity against Escherichia coli JM109 by agar dilution method; type: functional
Escherichia coli [2] = assay: Activity of Escherichia coli Inhibitor-resistant beta-lactamase SHV-56; details: JM109
Klebsiella pneumoniae [3] = assay: Antimicrobial activity against Klebsiella pneumoniae Kp2792 expressing beta-lactamase SHV-56 by agar dilution method; type: functional
Escherichia coli [4] = assay: Antimicrobial activity against Escherichia coli JM109 harboring pE1 plasmid expressing beta-lactamase SHV-11 by agar dilution method; type: functional
Escherichia coli [5] = assay: Antimicrobial activity against Escherichia coli JM109 harboring pE1 plasmid expressing beta-lactamase SHV-11 by agar dilution method in presence of clavulanic acid; type: functional
Escherichia coli [6] = assay: Antimicrobial activity against Escherichia coli JM109 harboring pE1MD plasmid expressing beta-lactamase SHV-56 by agar dilution method; type: functional
Klebsiella pneumoniae [7] = assay: Antimicrobial activity against Klebsiella pneumoniae Kp2792 expressing beta-lactamase SHV-56 by agar dilution method in presence of clavulanic acid; type: functional
Escherichia coli [8] = assay: Antimicrobial activity against Escherichia coli JM109 harboring pSC1 plasmid expressing beta-lactamase SHV-56 by agar dilution method in presence of clavulanic acid; type: functional
Escherichia coli [9] = assay: Antimicrobial activity against Escherichia coli JM109 harboring pE1MD plasmid expressing beta-lactamase SHV-56 by agar dilution method in presence of clavulanic acid; type: functional
Escherichia coli [10] = assay: Antimicrobial activity against Escherichia coli JM109 harboring pSC1 plasmid expressing beta-lactamase SHV-56 by agar dilution method; type: functional
Escherichia coli [11] = assay: Antimicrobial activity against Escherichia coli JM109 by agar dilution method in presence of clavulanic acid; type: functional
Klebsiella pneumoniae [12] = assay: microbe, parasite or virus in culture; details: Kp2792
Escherichia coli [13] = assay: Antimicrobial activity against Escherichia coli JM109 harboring pE1 plasmid expressing beta-lactamase SHV-11 by agar dilution method in presence of Sulbactam; type: functional
Escherichia coli [14] = assay: Antimicrobial activity against Escherichia coli JM109 harboring pE1MD plasmid expressing beta-lactamase SHV-56 by agar dilution method in presence of Sulbactam; type: functional
Escherichia coli [15] = assay: Antimicrobial activity against Escherichia coli JM109 harboring pSC1 plasmid expressing beta-lactamase SHV-56 by agar dilution method in presence of Sulbactam; type: functional
Escherichia coli [16] = assay: Ratio of Kcat to Km for Escherichia coli Inhibitor-resistant beta-lactamase SHV-56; details: JM109
Escherichia coli [17] = assay: Antimicrobial activity against Escherichia coli JM109 harboring pE1 plasmid expressing beta-lactamase SHV-11 by agar dilution method in presence of Tazobactam; type: functional
Escherichia coli [18] = assay: Antimicrobial activity against Escherichia coli JM109 harboring pSC1 plasmid expressing beta-lactamase SHV-56 by agar dilution method in presence of Tazobactam; type: functional
Escherichia coli [19] = assay: Antimicrobial activity against Escherichia coli JM109 by agar dilution method in presence of Tazobactam; type: functional
Klebsiella pneumoniae [20] = assay: Antimicrobial activity against Klebsiella pneumoniae Kp2792 expressing beta-lactamase SHV-56 by agar dilution method in presence of Tazobactam; type: functional
Escherichia coli [21] = assay: Antimicrobial activity against Escherichia coli JM109 harboring pE1MD plasmid expressing beta-lactamase SHV-56 by agar dilution method in presence of Tazobactam; type: functional
[22] = Inhibition of Escherichia coli Inhibitor-resistant beta-lactamase SHV-56; parameters: species or system JM109
[23] = substrate: CO/N=C(\C(=O)N[C@@H]1C(=O)N2C(C(=O)O)=C(CSc3nc(=O)c(O)nn3C)CS[C@H]12)c1csc(N)n1; assay: (§1) Ratio of Kcat to Km for Escherichia coli beta-lactamase SHV-11; details: JM109
[24] = substrate: CO/N=C(\C(=O)N[C@@H]1C(=O)N2C(C(=O)O)=C(COC(N)=O)CS[C@H]12)c1ccco1; assay: as §1; details: JM109
[25] = substrate: CCN1CCN(C(=O)N[C@@H](C(=O)N[C@@H]2C(=O)N3[C@@H]2SC(C)(C)[C@@H]3C(=O)O)c2ccccc2)C(=O)C1=O; assay: as §1; details: JM109
[26] = substrate: CC1(C)S[C@@H]2[C@H](NC(=O)[C@H](C(=O)O)c3ccsc3)C(=O)N2[C@H]1C(=O)O; assay: as §1; details: JM109
[27] = substrate: CC(=O)OCC1=C(C(=O)O)N2C(=O)[C@@H](NC(=O)Cc3cccs3)[C@H]2SC1; assay: as §1; details: JM109
[28] = substrate: CO[C@@]1(NC(=O)Cc2cccs2)C(=O)N2C(C(=O)O)=C(COC(N)=O)CS[C@@H]21; assay: (§2) Activity of Escherichia coli beta-lactamase SHV-11; details: JM109
[29] = substrate: CO/N=C(\C(=O)N[C@@H]1C(=O)N2C(C(=O)O)=C(CSc3nc(=O)c(O)nn3C)CS[C@H]12)c1csc(N)n1; assay: as §2; details: JM109
[30] = substrate: CO/N=C(\C(=O)N[C@@H]1C(=O)N2C(C(=O)O)=C(COC(N)=O)CS[C@H]12)c1ccco1; assay: as §2; details: JM109
[31] = substrate: CCN1CCN(C(=O)N[C@@H](C(=O)N[C@@H]2C(=O)N3[C@@H]2SC(C)(C)[C@@H]3C(=O)O)c2ccccc2)C(=O)C1=O; assay: as §2; details: JM109
[32] = substrate: C[C@H]1[C@H](NC(=O)/C(=N\OC(C)(C)C(=O)O)c2csc(N)n2)C(=O)N1S(=O)(=O)O; assay: as §2; details: JM109
[33] = substrate: CC1(C)S[C@@H]2[C@H](NC(=O)[C@H](C(=O)O)c3ccsc3)C(=O)N2[C@H]1C(=O)O; assay: as §2; details: JM109
[34] = substrate: CO/N=C(\C(=O)N[C@@H]1C(=O)N2C(C(=O)O)=C(COC(C)=O)CS[C@H]12)c1csc(N)n1; assay: as §2; details: JM109
[35] = substrate: CC(=O)OCC1=C(C(=O)O)N2C(=O)[C@@H](NC(=O)Cc3cccs3)[C@H]2SC1; assay: as §2; details: JM109
[36] = substrate: CO/N=C(\C(=O)N[C@@H]1C(=O)N2C(C(=O)[O-])=C(C[N+]3(C)CCCC3)CS[C@H]12)c1csc(N)n1; assay: as §2; details: JM109
[37] = substrate: CC(C)(O/N=C(\C(=O)N[C@@H]1C(=O)N2C(C(=O)[O-])=C(C[n+]3ccccc3)CS[C@H]12)c1csc(N)n1)C(=O)O; assay: as §2; details: JM109

Molecule: CO/N=C(\C(=O)N[C@@H]1C(=O)N2C(C(=O)[O-])=C(C[N+]3(C)CCCC3)CS[C@H]12)c1csc(N)n1
- MIC (Escherichia coli [1]): ≤ 0.1 µg/mL
- kcat (Escherichia coli [2]): < 0.01 s⁻¹
- MIC (Klebsiella pneumoniae [3]): ≤ 0.1 µg/mL

Molecule: CC(C)(O/N=C(\C(=O)N[C@@H]1C(=O)N2C(C(=O)[O-])=C(C[n+]3ccccc3)CS[C@H]12)c1csc(N)n1)C(=O)O
- kcat (Escherichia coli [2]): < 0.01 s⁻¹

Molecule: CO/N=C(\C(=O)N[C@@H]1C(=O)N2C(C(=O)O)=C(COC(N)=O)CS[C@H]12)c1ccco1
- kcat (Escherichia coli [2]): < 0.01 s⁻¹

Molecule: CO/N=C(\C(=O)N[C@@H]1C(=O)N2C(C(=O)O)=C(CSc3nc(=O)c(O)nn3C)CS[C@H]12)c1csc(N)n1
- kcat (Escherichia coli [2]): < 0.01 s⁻¹

Molecule: CO[C@@]1(NC(=O)Cc2cccs2)C(=O)N2C(C(=O)O)=C(COC(N)=O)CS[C@@H]21
- kcat (Escherichia coli [2]): < 0.01 s⁻¹

Molecule: C[C@H]1[C@H](NC(=O)/C(=N\OC(C)(C)C(=O)O)c2csc(N)n2)C(=O)N1S(=O)(=O)O
- kcat (Escherichia coli [2]): < 0.01 s⁻¹

Molecule: CC1(C)S[C@@H]2[C@H](NC(=O)[C@H](N)c3ccc(O)cc3)C(=O)N2[C@H]1C(=O)O [AMOXICILLIN]
- MIC (Escherichia coli [1]): 4 µg/mL (≈ 10.9 µM)
- MIC (Escherichia coli [4]): 2050 µg/mL (≈ 5600 µM)
- MIC (Escherichia coli [5]): 2 µg/mL
- MIC (Escherichia coli [6]): 4100 µg/mL (≈ 11200 µM)
- MIC (Klebsiella pneumoniae [7]): 4100 µg/mL
- MIC (Escherichia coli [8]): 512 µg/mL
- MIC (Escherichia coli [9]): 256 µg/mL
- MIC (Klebsiella pneumoniae [3]): > 4100 µg/mL
- MIC (Escherichia coli [10]): 4100 µg/mL (≈ 11200 µM)
- MIC (Escherichia coli [11]): 2 µg/mL

Molecule: CC1(C)S[C@@H]2[C@H](NC(=O)[C@H](N)c3ccccc3)C(=O)N2[C@H]1C(=O)O [AMPICILLIN]
- MIC (Escherichia coli [1]): 4 µg/mL (≈ 11.4 µM)
- MIC (Escherichia coli [4]): 1020 µg/mL (≈ 2930 µM)
- MIC (Klebsiella pneumoniae [12]): 128 µg/mL (≈ 366 µM)
- MIC (Escherichia coli [6]): 1020 µg/mL (≈ 2930 µM)
- MIC (Escherichia coli [13]): 128 µg/mL
- MIC (Escherichia coli [14]): 64 µg/mL
- MIC (Escherichia coli [15]): 128 µg/mL
- MIC (Klebsiella pneumoniae [3]): > 4100 µg/mL
- MIC (Escherichia coli [10]): 2050 µg/mL (≈ 5860 µM)

Molecule: CO/N=C(\C(=O)N[C@@H]1C(=O)N2C(C(=O)O)=C(COC(C)=O)CS[C@H]12)c1csc(N)n1 [CEFOTAXIME]
- MIC (Escherichia coli [1]): ≤ 0.1 µg/mL
- kcat (Escherichia coli [2]): < 0.01 s⁻¹
- MIC (Klebsiella pneumoniae [3]): ≤ 0.1 µg/mL

Molecule: CC(=O)OCC1=C(C(=O)O)N2C(=O)[C@@H](NC(=O)Cc3cccs3)[C@H]2SC1 [CEPHALOTHIN]
- MIC (Escherichia coli [1]): 4 µg/mL (≈ 10.1 µM)
- MIC (Escherichia coli [4]): 8 µg/mL (≈ 20.2 µM)
- MIC (Escherichia coli [6]): 8 µg/mL (≈ 20.2 µM)
- kcat/Km (Escherichia coli [16]): 5000 M⁻¹ s⁻¹
- Km (Escherichia coli [2]): 20 µM
- kcat (Escherichia coli [2]): 0.1 s⁻¹
- MIC (Klebsiella pneumoniae [3]): 8 µg/mL (≈ 20.2 µM)
- MIC (Escherichia coli [10]): 8 µg/mL (≈ 20.2 µM)

Molecule: C[C@@H](O)[C@H]1C(=O)N2C(C(=O)O)=C(SCCNC=N)C[C@H]12 [IMIPENEM ANHYDROUS]
- MIC (Escherichia coli [1]): ≤ 0.1 µg/mL
- MIC (Klebsiella pneumoniae [3]): ≤ 0.1 µg/mL

Molecule: CCN1CCN(C(=O)N[C@@H](C(=O)N[C@@H]2C(=O)N3[C@@H]2SC(C)(C)[C@@H]3C(=O)O)c2ccccc2)C(=O)C1=O [PIPERACILLIN]
- MIC (Escherichia coli [17]): 2 µg/mL
- MIC (Escherichia coli [1]): 2 µg/mL (≈ 3.86 µM)
- MIC (Escherichia coli [4]): 64 µg/mL (≈ 124 µM)
- MIC (Escherichia coli [18]): 2 µg/mL
- MIC (Escherichia coli [6]): 64 µg/mL (≈ 124 µM)
- MIC (Escherichia coli [19]): 1 µg/mL
- kcat/Km (Escherichia coli [16]): 1e+06 M⁻¹ s⁻¹
- MIC (Klebsiella pneumoniae [20]): 4 µg/mL
- Km (Escherichia coli [2]): 50 µM
- kcat (Escherichia coli [2]): 50 s⁻¹
- MIC (Klebsiella pneumoniae [3]): 512 µg/mL (≈ 989 µM)
- MIC (Escherichia coli [10]): 512 µg/mL (≈ 989 µM)
- MIC (Escherichia coli [21]): 1 µg/mL

Molecule: CC1(C)[C@H](C(=O)O)N2C(=O)C[C@H]2S1(=O)=O [SULBACTAM]
- IC50 [22]: 300 nM

Molecule: CC1(C)S[C@@H]2[C@H](NC(=O)[C@H](C(=O)O)c3ccsc3)C(=O)N2[C@H]1C(=O)O [TICARCILLIN]
- MIC (Escherichia coli [1]): 4 µg/mL (≈ 10.4 µM)
- MIC (Escherichia coli [4]): 2050 µg/mL (≈ 5330 µM)
- MIC (Escherichia coli [5]): 2 µg/mL
- MIC (Escherichia coli [6]): 2050 µg/mL (≈ 5330 µM)
- kcat/Km (Escherichia coli [16]): 70000 M⁻¹ s⁻¹
- MIC (Klebsiella pneumoniae [7]): 1020 µg/mL
- MIC (Escherichia coli [8]): 256 µg/mL
- Km (Escherichia coli [2]): 450 µM
- kcat (Escherichia coli [2]): 30 s⁻¹
- MIC (Escherichia coli [9]): 128 µg/mL
- MIC (Klebsiella pneumoniae [3]): > 4100 µg/mL
- MIC (Escherichia coli [10]): > 4100 µg/mL
- MIC (Escherichia coli [11]): 2 µg/mL

B1: Beta-lactamase SHV-11 (Escherichia coli), Q7X575 (protein)
chain: MRYIRLCIISLLATLPLAVHASPQPLEQIKQSESQLSGRVGMIEMDLASGRTLTAWRADERFPMMSTFKVVLCGAVLARVDAGDEQLERKIHYRQQDLVDYSPVSEKHLADGMTVGELCAAAITMSDNSAANLLLATVGGPAGLTAFLRQIGDNVTRLDRWETELNEALPGDARDTTTPASMAATLRKLLTSQRLSARSQRQLLQWMVDDRVAGPLIRSVLPAGWFIADKTGAGERGARGIVALLGPNNKAERIVVIYLRDTPASMAERNQQIAGIGAALIEHWQR
- kcat/Km [23]: 350000 M⁻¹ s⁻¹
- kcat/Km [24]: 250 M⁻¹ s⁻¹
- kcat/Km [25]: 750000 M⁻¹ s⁻¹
- kcat/Km [26]: 100000 M⁻¹ s⁻¹
- kcat/Km [27]: 10000 M⁻¹ s⁻¹
- kcat [28]: < 0.01 s⁻¹
- Km [29]: 300 µM
- kcat [29]: 0.01 s⁻¹
- Km [30]: 200 µM
- kcat [30]: 0.05 s⁻¹
- Km [31]: 40 µM
- kcat [31]: 30 s⁻¹
- kcat [32]: < 0.01 s⁻¹
- Km [33]: 20 µM
- kcat [34]: < 0.01 s⁻¹
- Km [35]: 50 µM
- kcat [35]: 0.5 s⁻¹
- kcat [36]: < 0.01 s⁻¹
- kcat [37]: < 0.01 s⁻¹
